One experiment relates to Panc-1. The experiment is described as follows: Cell viability after 4 hours (Cell Titer Glo), Panc-1. Type of experiment: cell-based, human. Conditions: 4 h incubation; read-out: Activities [μM] Panc1 (p18). On the procedure:
(§1) Human ovarian cancer cell lines OVCAR-3 (p 41), SKOV-3 (p 35) and the human uterine sarcoma cell line MES-SA-Dx5 (p 61) (multi-drug resistant clone), the human pancreatic cancer cell line Panc-1 (passage number 18), and human triple negative breast cancer cell line MDA-MB-231 (passage number 47) were grown in ATCC recommended medium, 10% fetal bovine serum, 100 IU/ml penicillin, 100 microg/ml streptomycin. Cells were typically seeded (2,000 cells per well) into 96 well plates and media was replaced after 48 hours of incubation. […] Each Phor-18-hFSH-β81-89 conjugate provided in lyophilized form was dissolved in saline and added to cells. The duration of incubation was 4 hours at 37° C. Cell viability was assessed after 4 hours using a luminometric assays (Promega, Cell Titer Glo, G755B, lot #00000031421). Controls contained saline or 0.1% triton as reference for 0 and 100% cell death, respectively.
(§2) Data were processed and analyzed using GraphPad Prism version 5.00 for Windows, GraphPad Software, San Diego Calif. USA, www.graphpad.com”. Statistical analysis for significance was determined by a two-tailed Student's T-test. Each study was conducted to achieve an N of at least 6.
(§3) In vitro activities were expressed as IC50 values for each cell line, time point and compound tested that were calculated using the Hill equation (Graph Pad Prizm software).

The subject of another experiment is SKOV-3. Description: Cell viability after 4 hours (Cell Titer Glo), SKOV-3. The class given is cell-based, human. The settings on record: 4 h incubation; read-out: Activities [μM] SKOV-3 (p35). On the procedure: as §1, §2, §3
A further experiment deals with MDA-MB-231. The experiment is described as follows: Cell viability after 4 hours (Cell Titer Glo), MDA-MB-231. The class given is cell-based, human. The settings on record: 4 h incubation; read-out: Activities [μM] MDA-MB-231 (p47). On the procedure: as §1, §2, §3
The next experiment concerns NIH:3T3. Type of experiment: cell-based, mouse. Conditions: non cancerous cell line 3T3. The text has this: Membranes of non-cancerous cell lines are neutral and are resistant to cytolytic peptides, in contrast to cancer cell lines, which have a high phosphatidic acid content in their outer membrane.
The breast cancer cell lines studied were MDA-MB-4355 (estrogen receptor alpha negative), MCF-7 and T47D (estrogen receptor alpha positive), ovarian cancer cell lines (OVCAR-3 and SKOV-3), prostate cancer (LNCaP), the non-malignant breast epithelial cell line MCF-10A and the mouse fibroblast cell line NIH:3T3.
Cells were seeded into 96 well plates at a densitiy of 10,000 cells/well. […] Controls contained USP saline or 0.1% TritonX-100™ as reference for 0 and 100% cell death, respectively. […] Cell viability was assessed through formazan conversion assay (MTT assay, (CellTiter 96 Aqueous One, Promega # G3582). Formazan conversion was determined using a BioRad Benchmark Plus microplate spectrophotometer dual wavelengths at 490/630 nm at room temperature).
Data were calculated as fraction of absorption in TritonX-100™ containing wells representing 100% cell death versus 0% cell death in saline containing wells. Cytotoxicity was determined as IC50 using GraphPad Prism version 5.01 for Windows, GraphPad Software, San Diego Calif. […] 4 wells of each individual set of two 96 well plates were compared and analyzed. Statistical analysis for significance was determined by a two-tailed Student's T-test.

Another experiment concerns MDA-MB-435S xenograft. Description: MDA-MB-435S xenograft, multiple dose regimen. The class given is in vivo, mice. The settings on record: 0.002 and 0.2 mg/kg. On the procedure:
In order to determine the minimal effective dose necessary to reduce MDA-MB-435S xenograft weights in a multiple dose regimen, Nu/Nu female mice, outbred strain, age 8 weeks (Charles River), were injected (s.c.) into the interscapular region with a MDA-MB-435S (passage #253)/Matrigel suspension (2×10^6 cells/mouse) as previously described above. […] The doses were given as a single bolus intravenous injection via lateral tail vein on days 15, 16, 17, 20, 21, 22, 23, 27, 28, 29, 30, 33, 34, 35, 36, 37, 38, 40, 41, 42 after tumor cell inoculation. Saline injections served as control groups.
Each treatment group consisted of 16 mice. During the entire study tumor volumes were recorded twice weekly. Final necropsy was conducted on day 45 after tumor cell injection. […] due to occlusion of the tail vein in most mice. At study endpoint body weight, tumor weights were determined and fixed in phosphate buffered 10% formalin.

The next experiment has as its system MCF-7 xenograft. Description: MCF-7 breast cancer xenograft. The class given is in vivo, mice. The settings on record: MCF-7, 2 × 3 wk, 19 d. On the procedure: In vivo efficacy studies were conducted as monotherapy, or a combination therapy with standard of care treatments in nude mice bearing human breast cancer xenografts: MDA-MB-435S.luc (s.c.), MCF-7 (estrogen receptor alpha positive), human ovarian cancer xenografts: OVCAR-3, (s.c.), human prostate cancer xenografts: PC-3 (androgen receptor negative).
Mice were sacrificed one week after the last injection and blood collected for chemistry panel, tumor weights and body weights were recorded. Part of the tumors were fixed in PBS buffered 10% formalin for histological evaluation.

A value given as a limit tells only on which side of the number the result lay.

As to KFAKFAK KFAKFAK KFAK [Phor18], the IC50 in the experiment on Panc-1 came out at 18.9 ± 0.2 µM; with SKOV-3, 21.7 ± 3.6 µM; in the experiment on MDA-MB-231 it was 18.9 ± 0.8 µM.

In the experiment with NIH:3T3, “KFAKFAKKFAKFAKKFAKQHWSYGLRPG [Phor18-LHRH]” had an IC50 greater than 10 µM. For the same substance, the Tumor response result in the experiment with MDA-MB-435S xenograft was “tumor regression”. For the same substance, in the experiment on MDA-MB-435S xenograft (H&E), the “Histological examination of tumors” value was “eradication of tumor cells”. For the same substance, the “Median Tumor Weight vs Saline P < 0.05 (dose, growth delay)” value in the experiment on MCF-7 xenograft is on record as 0.02 mg/kg growth.

The record behind these values is patent US20140161767A1, “FOLLICLE-STIMULATING HORMONE (FSH)/LYTIC DOMAIN FUSION CONSTRUCTS AND METHODS OF MAKING AND USING SAME” (BOARD OF SUPERVISORS OF LOUISIANA STATE UNIVERSITY AND …, priority 2012, published 2014).
